Measured values as given in patent publication US11105794B2, “In vitro nephrotoxicity screening assay” (Hoffmann-La Roche Inc., priority 2016, dated 2021).

Experiments:
PTEC-TERT1 cells = experiment: EGF assay, supernatant of PTEC-TERT1 cells; conditions: for Toxicity grade: from EGF, assay window saline vs toxic reference compound 4-1
Procedure: Prior to treatment with oligonucleotides the PTEC-TERT1 were seeded into collagen I-coated 96-well plates (Corning, 356407) at a density of 40 000 and 20 000 cells/well respectively in PTEC medium and grown until confluence.
Oligonucleotides were dissolved in PBS and added to the cell culture at the given concentration, such as 10, 30 or 100 μM. The total volume of each well was 100 μl. PBS served as vehicle control.
When extra cellular markers, like EGF and KIM-1, were analyzed following the oligonucleotide treatment the medium was collected and stored at −20° C. until further analysis. […] The collected medium was stored at −20° C.
For analysis of human EGF, cell supernatants were thawed on ice, diluted 1:2 and 1:10 in sample dilution buffer (BioRad catalog # M60-009RDPD) and analyzed by Luminex®-based ELISA using human EGF beads (Bio-Plex Pro™ Human Cancer Biomarker Panel 2 EGF Set#171BC603M), or followed by analysis using the Bio-Plex® 200 Systems (BioRad) according to the manufacturer's instructions. Data are reported as mean concentrations and standard deviations of triplicate wells.

A549 cells [1] = experiment: EGF assay, A549 cells transfected with oligonucleotide; assay type: cell-based, human; conditions: A549, 48 hours after transfection;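 note: values as percent of saline control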
Procedure: (§1) A549 cells (ATCC CCL-185) were cultivated according to the manufacturer's instructions in A549 medium [F-12K Nut Mix (Gibco, 21127-022), 1% penicillin/streptomycin (Gibco: 15140-122), 10% FBS (Gibco 16000-044)].
(§2) Prior to treatment with oligonucleotides the A549 cells were seeded in 96 well plates at 3′000 cells per well in A549 regular medium and grown until 60% confluence. […]
(§3) A549 were cultivated as described in the “Materials and methods” section. At after at 50-60% confluence the oligonucleotides were transfected into the cells using 0.5 μl Lipofectamin (Invitrogen, 11668-019) in 25 μl OptiMEM® (GIBCO 31985062) and 1 ng or 10 ng oligonucleotide in the same volume OptiMEM. The cells were incubated over night at 37° C. The medium was changed using A459 regular medium+10 ng/ml EGF. 48 hours after transfection the medium was collected for EGF measurements and the cells were harvested for ATP measurements.

A549 cells [2] = experiment: Intracellular ATP assay, A549 cells transfected with oligonucleotide; assay type: cell-based, human; conditions: A549, 48 hours after transfection;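 note: ATP as percent of saline control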
Procedure: as §1, §2
Each sample was tested in triplicate.
as §3

[3] = system: Primary human hepatocytes; experiment: EGF assay, culture media of primary human hepatocytes; assay type: cell-based; conditions: 10 ng/ml EGF in medium;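 note: values as percent of saline vehicle control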
Procedure: Cryopreserved human hepatocytes were suspended in William's Medium E (WME) without phenol red (Sigma W-1878) supplemented with 10% fetal calf serum, penicillin (100 U/ml), streptomycin (0.1 mg/ml) at a density of approx. 1×10^6 cells/ml and seeded into collagen-coated 96-well plates (Becton Dickinson AG, Allschwil, Switzerland) at a density of 0.4×10^5 cells/well. Cells were pre-cultured for 3 to 4 h allowing for attachment to cell culture plates before start of treatment with oligonucleotides.
Before oligonucleotide treatment the seeding medium was replaced by 90 μl of serum free WME.
The total volume of each well was 100 μl. PBS served as vehicle control.
Human primary hepatocytes were cultivated as described in the “Materials and methods” section with addition of 10 ng/ml of EGF to the medium. At confluence the cells were treated with oligonucleotide as described in the “Materials and methods” section, in concentrations of 10 or 100 μM.
The medium was obtained at day 3, and the EGF level was measured according to the assay described in the “Materials and methods” section.

[4] = PTEC-TERT1, Day 6, 10 μM (Table 4)
[5] = PTEC-TERT1, Day 6, 30 μM (Table 4)
[6] = PTEC-TERT1, Day 6, 100 μM (Table 4)
[7] = PTEC-TERT1, 6 days, 10 μM oligonucleotide (Table 7)
[8] = PTEC-TERT1, 6 days, 30 μM oligonucleotide (Table 7)

Substance	EGF (PTEC-TERT1 cells; [4]) [% saline]	EGF (PTEC-TERT1 cells; [5]) [% saline]	EGF (PTEC-TERT1 cells; [6]) [% saline]	EGF (PTEC-TERT1 cells; [7]) [% saline]	Toxicity grade (PTEC-TERT1 cells; PTEC-TERT1, 6 days, 10 μM)	EGF (PTEC-TERT1 cells; [8]) [% saline]	Toxicity grade (PTEC-TERT1 cells; PTEC-TERT1, 6 days, 30 μM)	other results
CGTttgtgctcgaTAA (CGTTTGTGCTCGATAA; chemistry not given here) [Compound 16-1]	394	509	707					
ACTgctttccactCTG (ACTGCTTTCCACTCTG; chemistry not given here) [Compound 8-1]	1153	1359	1545	8412	323	15126	208	EGF (A549 cells [1]; 1 ng oligonucleotide): 140 % saline; EGF (A549 cells [1]; 10 ng oligonucleotide): 233 % saline; ATP (A549 cells [2]; 1 ng oligonucleotide): 101 % saline; ATP (A549 cells [2]; 10 ng oligonucleotide): 58 % saline
CGTttgtgctcgATA (CGTTTGTGCTCGATA; chemistry not given here) [Compound 17-1]	342	550	693					
TAAggcaatcaagGTA (TAAGGCAATCAAGGTA; chemistry not given here) [Compound 5-1]								EGF (PTEC-TERT1 cells; PTEC-TERT1, Day 3, 11 μM (Table 3)): 174 % saline; EGF (PTEC-TERT1 cells; PTEC-TERT1, Day 3, 33 μM (Table 3)): 222 % saline; EGF (PTEC-TERT1 cells; PTEC-TERT1, Day 3, 100 μM (Table 3)): 182 % saline; EGF (PTEC-TERT1 cells; PTEC-TERT1, Day 7, 11 μM (Table 3)): 158 % saline; EGF (PTEC-TERT1 cells; PTEC-TERT1, Day 7, 33 μM (Table 3)): 249 % saline; EGF (PTEC-TERT1 cells; PTEC-TERT1, Day 7, 100 μM (Table 3)): 754 % saline; EGF (PTEC-TERT1 cells; PTEC-TERT1, Day 10, 11 μM (Table 3)): 54 % saline; EGF (PTEC-TERT1 cells; PTEC-TERT1, Day 10, 33 μM (Table 3)): 210 % saline; EGF (PTEC-TERT1 cells; PTEC-TERT1, Day 10, 100 μM (Table 3)): 720 % saline
TTAcacttgacCCA (TTACACTTGACCCA; chemistry not given here) [Compound 12-1]	19	27	71					
ACTgcrtttcrcacrtCTG (antisense ACTGCTTTCCACTCTG; LNA gapmer, stereodefined phosphorothioates, chemistry not fully specified) [Compound 8-3]				869	32	3416	46	
CACattscscttsgsctCTG (antisense CACATTCCTTGCTCTG; LNA gapmer, stereodefined phosphorothioates, chemistry not fully specified) [Compound 10-4]				60	1	157	1	
ATTgcattgtttcCGT (ATTGCATTGTTTCCGT; chemistry not given here) [Compound 18-1]	223	203	290					
GCCtcccagttccTTT (GCCTCCCAGTTCCTTT; chemistry not given here) [Compound 9-1]	220	284	1593					
CACattccttgctCTG (CACATTCCTTGCTCTG; chemistry not given here) [Compound 10-1]	73	330	783	305	11	1283	17	EGF ([3]; day 3, 10 μM): 145 % saline; EGF ([3]; day 3, 100 μM): 574 % saline
GTCagaaacaaccACC (GTCAGAAACAACCACC; chemistry not given here) [Compound 14-1]								EGF ([3]; day 3, 10 μM): 139 % saline; EGF ([3]; day 3, 100 μM): 220 % saline
CATtgcattgttTCCG (CATTGCATTGTTTCCG; chemistry not given here) [Compound 19-2]	370	606	770					
TGCtcaacatcAAG (TGCTCAACATCAAG; chemistry not given here) [Compound 11-1]	38	127	371					EGF ([3]; day 3, 10 μM): 184 % saline; EGF ([3]; day 3, 100 μM): 458 % saline
CAAaggaaacacaCAT (CAAAGGAAACACACAT; chemistry not given here) [Compound 6-1]	78	90	118					
CACattsccttsgctsCTsG (antisense CACATTCCTTGCTCTG; LNA gapmer, stereodefined phosphorothioates, chemistry not fully specified) [Compound 10-2]				93	3	156	1	
ACTgcstttcscacstCTG (antisense ACTGCTTTCCACTCTG; LNA gapmer, stereodefined phosphorothioates, chemistry not fully specified) [Compound 8-2]				5723	219	25199	347	
CACattrcrcttrgrctCTG (antisense CACATTCCTTGCTCTG; LNA gapmer, stereodefined phosphorothioates, chemistry not fully specified) [Compound 10-5]				369	13	1069	14	
CTAtgtgttccTGT (CTATGTGTTCCTGT; chemistry not given here) [Compound 15-1]	38	76	234					
CACattrccttrgctrCTrG (antisense CACATTCCTTGCTCTG; LNA gapmer, stereodefined phosphorothioates, chemistry not fully specified) [Compound 10-3]				248	9	1740	23	
TTTacacttgaCCC (TTTACACTTGACCC; chemistry not given here) [Compound 13-1]	27	29	39					
CATtgcattgtttCCG (CATTGCATTGTTTCCG; chemistry not given here) [Compound 19-1]	317	310	413					
CAAatgctgaaacTAT (CAAATGCTGAAACTAT; chemistry not given here) [Compound 7-1]	37	40	67					
